Assay results reported in ChEMBL document CHEMBL5058642, “Data for DCP probe TP-051” (2022).

Experiments:
[1] = species on record: Rattus norvegicus; assay: Serotonin (5-Hydroxytryptamine) 5-HT2, Non-Selective Eurofins-Panlabs radioligand binding assay; format: protein assay; conditions: Compound concentration 10.0 uM
[2] = species on record: Homo sapiens; assay: Inhibition of Nicotinic Acetylcholine at compound concentration of 10.0 uM in the Eurofins-Panlabs radioligand binding assay (Eurofins_assay_258590); format: protein-complex assay; conditions: Compound concentration 10.0 uM
[3] = target: Sodium-dependent serotonin transporter (Homo sapiens) (UniProt P31645); conditions: Compound concentration 10.0 uM
[4] = species on record: Homo sapiens; assay: Cholecystokinin CCK2 (CCKB) Eurofins-Panlabs radioligand binding assay; parameters: ligand concentration 0.072 nM, non-specific ligand with concentration 1 µM Sincalide, incubation time 3 h, incubation temperature 25 °C; conditions: Compound concentration 10.0 uM
[5] = target: GABA-A receptor; anion channel (Rattus norvegicus) (UniProt O09028+P15431+P18506+P18508+P19969+P20236+P23574+P23576+P28471+P28473+P30191+P62813+P63079+P63138+Q91ZM7+Q9ES14); conditions: Compound concentration 10.0 uM
[6] = target: T1, Free fatty acid receptor 1 (Homo sapiens, UniProt O14842); assay: FLIPR functional assay (Ca influx activity of CHO cells)
[7] = target: Cannabinoid receptor 1 (Homo sapiens) (UniProt P21554); assay: Cannabinoid CB1 Eurofins-Panlabs radioligand binding assay; conditions: Compound concentration 10.0 uM
[8] = target: T1, Free fatty acid receptor 1; assay: FFAR1 binding assay
[9] = target: Polyunsaturated fatty acid 5-lipoxygenase (Homo sapiens) (UniProt P09917); assay: Lipoxygenase 5-LO Eurofins-Panlabs enzyme assay; conditions: Compound concentration 10.0 uM
[10] = target: MAO-B (Homo sapiens, UniProt P27338); assay: Inhibition of Monoamine Oxidase MAO-B at compound concentration of 10.0 uM in the Eurofins-Panlabs enzyme assay (Eurofins_assay_140120); parameters: substrate with concentration 50 uM Kynuramine, incubation time 60 min, incubation temperature 37 C; conditions: recombinant human MAO-B expressed in insect Hi5 cells, probe Kynuramine, 50 uM, compound concentration 10 uM
[11] = target: Matrix metalloproteinase-14 (Homo sapiens) (UniProt P50281); assay: Peptidase, Matrix Metalloproteinase-14 (MMP-14) Eurofins-Panlabs enzyme assay; parameters: substrate with concentration; conditions: Compound concentration 10.0 uM
[12] = target: Sodium-dependent serotonin transporter (Homo sapiens) (UniProt P31645); assay: Transporter, Serotonin (5- Hydroxytryptamine) (SERT) Eurofins-Panlabs radioligand binding assay; parameters: ligand concentration 0.15 nM, non-specific ligand with concentration 10 µM Imipramine, incubation time 3 h, incubation temperature 4 °C; conditions: Compound concentration 10.0 uM
[13] = target: Phospholipase A2 (Sus scrofa) (UniProt A0A8D1VEY7); assay: Phospholipase PLA2-I Eurofins-Panlabs enzyme assay; parameters: substrate with concentration; conditions: Compound concentration 10.0 uM
[14] = target: RAC-alpha serine/threonine-protein kinase (Homo sapiens) (UniProt P31749); assay: Protein Serine/Threonine Kinase, PKBα/Akt1 Eurofins-Panlabs enzyme assay; conditions: Compound concentration 10.0 uM
[15] = target: Beta-2 adrenergic receptor (Homo sapiens, UniProt P07550); assay: GPCRScan assay: inhibition of Beta2; parameters: radioligand conc. used [nm] 0.5 - 1.0, parental cells HEK Flp-In
[16] = target: Alpha-1B adrenergic receptor (Homo sapiens) (UniProt P35368); conditions: Compound concentration 10.0 uM
[17] = target: Sodium-dependent dopamine transporter (Homo sapiens, UniProt Q01959); assay: GPCRScan assay: inhibition of DAT; parameters: radioligand conc. used [nm] 3.6 – 16.0, parental cells stable HEK
[18] = target: Cathepsin G (Homo sapiens) (UniProt P08311); assay: Inhibition of Peptidase, CTSG (Cathepsin G) at 10 µM in the Eurofins-Panlabs enzyme assay (Eurofins_assay_112510); parameters: substrate with concentration; conditions: Compound concentration 10.0 uM
[19] = target: Steroid 5-alpha-reductase (Rattus norvegicus) (UniProt P24008+P31214); assay: Steroid 5α-Reductase Eurofins-Panlabs enzyme assay; format: protein assay; parameters: substrate with concentration; conditions: Compound concentration 10.0 uM
[20] = target: Alpha-1D adrenergic receptor (Homo sapiens, UniProt P25100); assay: GPCRScan assay: inhibition of Alpha1D; parameters: radioligand conc. used [nm] 0.3 – 1.0, parental cells stable
[21] = species on record: Homo sapiens; conditions: Compound concentration 10.0 uM
[22] = target: 5-hydroxytryptamine receptor 7 (Homo sapiens) (UniProt P34969); conditions: Compound concentration 10.0 uM
[23] = target: 5-hydroxytryptamine receptor 2A (Homo sapiens) (UniProt P28223); conditions: Compound concentration 10.0 uM
[24] = target: MAO-A (Homo sapiens, UniProt P21397); assay: Inhibition of Monoamine Oxidase MAO-A at compound concentration of 10.0 uM in the Eurofins-Panlabs enzyme assay (Eurofins_assay_140010); parameters: substrate with concentration 50 uM Kynuramine, incubation time 60 min, incubation temperature 37 C; conditions: recombinant human MAO-A expressed in insect Hi5 cells, probe Kynuramine, 50 uM, compound concentration 10 uM
[25] = target: Prostaglandin G/H synthase 2 (Homo sapiens) (UniProt P35354); assay: Inhibition of Cyclooxygenase COX-2 at compound concentration of 10.0 uM in the Eurofins-Panlabs enzyme assay (Eurofins_assay_118010); parameters: substrate with concentration 0.3 uM Arachidonic acid, incubation time 15 min, incubation temperature 37 C; conditions: Compound concentration 10.0 uM
[26] = target: Renin (Homo sapiens) (UniProt P00797); assay: Peptidase, Renin Eurofins-Panlabs enzyme assay; conditions: Compound concentration 10.0 uM
[27] = target: Neuromedin-K receptor (Homo sapiens) (UniProt P29371); assay: Tachykinin NK3 Eurofins-Panlabs radioligand binding assay; conditions: Compound concentration 10.0 uM
[28] = target: Xanthine dehydrogenase/oxidase (Bos taurus) (UniProt P80457); assay: Xanthine Oxidase Eurofins-Panlabs enzyme assay; conditions: cattle, bovine milk xanthine oxidase, probe Xanthine, 165 µM

Sodium-dependent dopamine transporter, sequence (Q01959 whole entry): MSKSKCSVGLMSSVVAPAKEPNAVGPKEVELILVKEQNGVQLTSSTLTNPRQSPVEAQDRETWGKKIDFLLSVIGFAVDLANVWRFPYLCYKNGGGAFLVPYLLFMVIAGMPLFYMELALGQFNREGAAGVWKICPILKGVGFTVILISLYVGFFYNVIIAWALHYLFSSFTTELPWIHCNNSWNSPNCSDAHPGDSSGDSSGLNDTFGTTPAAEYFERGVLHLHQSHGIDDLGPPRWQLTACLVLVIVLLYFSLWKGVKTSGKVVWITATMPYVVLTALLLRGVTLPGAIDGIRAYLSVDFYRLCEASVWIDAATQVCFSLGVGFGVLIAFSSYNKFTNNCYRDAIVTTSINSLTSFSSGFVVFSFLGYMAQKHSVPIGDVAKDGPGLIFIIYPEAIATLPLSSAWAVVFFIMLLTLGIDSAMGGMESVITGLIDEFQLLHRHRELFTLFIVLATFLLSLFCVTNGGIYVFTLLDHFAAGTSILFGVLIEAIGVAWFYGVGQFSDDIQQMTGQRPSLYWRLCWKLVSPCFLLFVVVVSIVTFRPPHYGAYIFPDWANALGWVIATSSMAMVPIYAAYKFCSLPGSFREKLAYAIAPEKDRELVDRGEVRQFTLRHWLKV
Sodium-dependent serotonin transporter (Homo sapiens), sequence (P31645 whole entry, looked up): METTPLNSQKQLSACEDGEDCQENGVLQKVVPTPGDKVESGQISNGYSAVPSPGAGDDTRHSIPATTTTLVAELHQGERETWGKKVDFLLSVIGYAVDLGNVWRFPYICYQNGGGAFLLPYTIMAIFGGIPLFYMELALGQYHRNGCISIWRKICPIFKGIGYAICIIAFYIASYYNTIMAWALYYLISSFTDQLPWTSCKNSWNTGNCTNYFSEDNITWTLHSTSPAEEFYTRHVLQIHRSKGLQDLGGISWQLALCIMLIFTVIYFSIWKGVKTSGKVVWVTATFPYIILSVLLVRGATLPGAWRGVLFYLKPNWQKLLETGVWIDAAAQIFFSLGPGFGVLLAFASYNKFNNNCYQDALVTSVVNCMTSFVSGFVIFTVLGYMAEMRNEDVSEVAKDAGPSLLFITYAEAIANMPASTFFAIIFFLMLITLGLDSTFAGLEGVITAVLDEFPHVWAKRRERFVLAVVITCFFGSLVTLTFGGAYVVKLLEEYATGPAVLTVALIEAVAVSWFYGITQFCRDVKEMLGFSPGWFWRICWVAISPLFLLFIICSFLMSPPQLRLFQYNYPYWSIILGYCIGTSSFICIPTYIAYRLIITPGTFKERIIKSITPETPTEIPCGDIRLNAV
Beta-2 adrenergic receptor, sequence (P07550 whole entry): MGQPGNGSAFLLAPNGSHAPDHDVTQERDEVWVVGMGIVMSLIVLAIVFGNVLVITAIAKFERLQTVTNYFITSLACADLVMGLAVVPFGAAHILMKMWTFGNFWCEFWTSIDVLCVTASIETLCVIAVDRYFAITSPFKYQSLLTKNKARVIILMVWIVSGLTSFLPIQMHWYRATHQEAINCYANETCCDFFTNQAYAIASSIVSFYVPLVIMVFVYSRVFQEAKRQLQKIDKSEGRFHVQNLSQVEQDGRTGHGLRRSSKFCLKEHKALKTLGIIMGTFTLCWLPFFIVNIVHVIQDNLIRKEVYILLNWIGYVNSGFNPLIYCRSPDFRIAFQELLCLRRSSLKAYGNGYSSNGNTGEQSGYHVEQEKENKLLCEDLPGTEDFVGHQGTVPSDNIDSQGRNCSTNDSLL
T1 sequence (O14842 whole entry): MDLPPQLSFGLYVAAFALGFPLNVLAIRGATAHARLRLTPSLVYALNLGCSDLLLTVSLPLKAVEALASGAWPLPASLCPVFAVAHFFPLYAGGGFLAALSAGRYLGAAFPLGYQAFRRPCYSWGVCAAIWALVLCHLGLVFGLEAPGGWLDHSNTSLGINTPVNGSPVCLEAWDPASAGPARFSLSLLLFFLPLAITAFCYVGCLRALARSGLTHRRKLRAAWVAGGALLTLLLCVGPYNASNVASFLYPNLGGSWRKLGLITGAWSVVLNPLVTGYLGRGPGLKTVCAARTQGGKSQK
Polyunsaturated fatty acid 5-lipoxygenase (Homo sapiens), sequence (P09917 whole entry): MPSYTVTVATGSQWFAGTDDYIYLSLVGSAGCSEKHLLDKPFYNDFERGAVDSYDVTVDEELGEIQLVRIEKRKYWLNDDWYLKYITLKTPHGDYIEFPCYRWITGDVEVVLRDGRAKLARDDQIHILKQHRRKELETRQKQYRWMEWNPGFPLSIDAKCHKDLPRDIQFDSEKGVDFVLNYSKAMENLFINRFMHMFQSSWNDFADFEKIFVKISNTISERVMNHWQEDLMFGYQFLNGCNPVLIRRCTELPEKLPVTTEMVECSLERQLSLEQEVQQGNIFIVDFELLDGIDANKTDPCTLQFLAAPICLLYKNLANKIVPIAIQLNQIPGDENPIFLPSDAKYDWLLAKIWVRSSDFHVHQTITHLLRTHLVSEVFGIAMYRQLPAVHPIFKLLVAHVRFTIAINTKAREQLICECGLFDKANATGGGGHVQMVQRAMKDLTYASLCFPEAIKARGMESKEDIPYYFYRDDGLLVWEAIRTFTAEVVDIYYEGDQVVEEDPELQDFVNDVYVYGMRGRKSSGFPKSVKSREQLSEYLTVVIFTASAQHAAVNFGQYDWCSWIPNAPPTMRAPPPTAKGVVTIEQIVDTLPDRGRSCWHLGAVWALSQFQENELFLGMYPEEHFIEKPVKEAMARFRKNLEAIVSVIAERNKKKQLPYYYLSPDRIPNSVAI
Cannabinoid receptor 1 (Homo sapiens), sequence (P21554 whole entry): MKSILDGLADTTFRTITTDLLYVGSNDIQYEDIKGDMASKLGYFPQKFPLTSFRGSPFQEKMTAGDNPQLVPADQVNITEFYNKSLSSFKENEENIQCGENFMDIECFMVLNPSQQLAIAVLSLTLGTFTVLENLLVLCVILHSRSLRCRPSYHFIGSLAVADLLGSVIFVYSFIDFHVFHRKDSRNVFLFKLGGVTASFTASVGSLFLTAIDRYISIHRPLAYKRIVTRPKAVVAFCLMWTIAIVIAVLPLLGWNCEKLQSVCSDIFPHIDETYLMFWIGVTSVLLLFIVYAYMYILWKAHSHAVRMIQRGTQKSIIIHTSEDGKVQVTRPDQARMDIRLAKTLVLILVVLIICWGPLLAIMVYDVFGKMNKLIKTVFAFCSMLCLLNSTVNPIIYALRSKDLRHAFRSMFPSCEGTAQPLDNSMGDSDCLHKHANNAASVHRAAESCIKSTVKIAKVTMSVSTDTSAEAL
MAO-B, sequence (P27338 whole entry): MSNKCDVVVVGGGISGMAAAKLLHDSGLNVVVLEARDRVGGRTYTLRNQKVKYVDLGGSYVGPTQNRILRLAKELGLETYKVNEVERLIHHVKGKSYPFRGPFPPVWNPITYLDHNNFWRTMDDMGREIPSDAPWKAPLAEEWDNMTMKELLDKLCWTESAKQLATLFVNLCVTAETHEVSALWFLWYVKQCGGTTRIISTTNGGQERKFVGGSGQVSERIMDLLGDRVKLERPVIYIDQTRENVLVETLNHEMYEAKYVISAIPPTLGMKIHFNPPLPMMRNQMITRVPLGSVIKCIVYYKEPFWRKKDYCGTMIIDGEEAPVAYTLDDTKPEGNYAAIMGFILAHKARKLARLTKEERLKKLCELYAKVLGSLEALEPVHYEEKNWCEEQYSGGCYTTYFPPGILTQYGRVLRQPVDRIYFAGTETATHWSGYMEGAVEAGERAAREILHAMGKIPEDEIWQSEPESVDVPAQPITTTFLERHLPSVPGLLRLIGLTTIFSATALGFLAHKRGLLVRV
MAO-A, sequence (P21397 whole entry): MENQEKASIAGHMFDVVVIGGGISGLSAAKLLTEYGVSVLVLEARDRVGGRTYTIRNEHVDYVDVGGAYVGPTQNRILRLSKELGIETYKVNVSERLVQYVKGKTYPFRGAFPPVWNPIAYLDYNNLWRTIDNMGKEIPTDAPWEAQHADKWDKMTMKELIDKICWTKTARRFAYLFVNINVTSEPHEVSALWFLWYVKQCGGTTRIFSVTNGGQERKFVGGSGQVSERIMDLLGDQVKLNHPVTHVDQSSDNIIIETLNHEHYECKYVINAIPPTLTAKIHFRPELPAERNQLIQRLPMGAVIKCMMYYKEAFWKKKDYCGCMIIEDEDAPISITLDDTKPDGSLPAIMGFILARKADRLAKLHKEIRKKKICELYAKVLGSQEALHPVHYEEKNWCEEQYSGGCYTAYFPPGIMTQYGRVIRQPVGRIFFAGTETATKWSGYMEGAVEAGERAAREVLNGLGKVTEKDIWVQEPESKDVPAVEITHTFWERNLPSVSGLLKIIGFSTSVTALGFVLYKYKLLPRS
Prostaglandin G/H synthase 2 (Homo sapiens), sequence (P35354 whole entry): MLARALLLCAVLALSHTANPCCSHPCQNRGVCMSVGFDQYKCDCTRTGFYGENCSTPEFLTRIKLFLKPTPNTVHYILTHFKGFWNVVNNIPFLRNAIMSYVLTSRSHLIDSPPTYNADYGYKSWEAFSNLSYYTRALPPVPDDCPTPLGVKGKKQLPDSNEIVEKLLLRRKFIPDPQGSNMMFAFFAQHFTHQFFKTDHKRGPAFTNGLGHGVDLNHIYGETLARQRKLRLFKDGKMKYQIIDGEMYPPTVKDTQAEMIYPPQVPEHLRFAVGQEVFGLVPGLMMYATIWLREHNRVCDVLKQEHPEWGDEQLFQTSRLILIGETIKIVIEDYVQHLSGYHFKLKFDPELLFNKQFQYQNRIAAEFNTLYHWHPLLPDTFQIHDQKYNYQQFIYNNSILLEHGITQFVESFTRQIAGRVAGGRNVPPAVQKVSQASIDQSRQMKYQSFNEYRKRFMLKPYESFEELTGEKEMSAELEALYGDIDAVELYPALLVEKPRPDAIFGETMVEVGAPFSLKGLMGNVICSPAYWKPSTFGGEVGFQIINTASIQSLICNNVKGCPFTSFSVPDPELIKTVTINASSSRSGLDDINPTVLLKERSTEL
Phospholipase A2 (Sus scrofa), sequence (A0A8D1VEY7 as listed by the source): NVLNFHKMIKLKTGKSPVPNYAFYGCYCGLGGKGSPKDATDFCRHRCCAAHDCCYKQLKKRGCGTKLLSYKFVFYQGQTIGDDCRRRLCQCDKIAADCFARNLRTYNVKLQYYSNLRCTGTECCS

Cc1cc(OC2CCS(=O)(=O)CC2)cc(C)c1-c1cccc(COc2ccc(C(=O)O)c(F)c2)c1
inhibition [1]: -3% | inhibition [2]: -5% | inhibition [3]: 2% | inhibition [4]: 5% | inhibition [5]: -1% | EC50 [6]: > 10 µM (not active) | inhibition [7]: -6% | Ki [8]: > 10 µM (not active)

Cc1cc(OC2CCS(=O)(=O)CC2)cc(C)c1-c1cccc(COc2ccc(CCC(=O)O)c(F)c2)c1
inhibition [9]: 85% | inhibition at 60 min, 10 µM [10]: 6% (not active) | inhibition [11]: 3% | inhibition [12]: -5% | inhibition [13]: 6% | inhibition [14]: -1% | Ki [15]: > 10 µM | pKi [15]: < 5 | inhibition [16]: 0.86% | Ki [17]: > 10 µM | pKi [17]: < 5 | inhibition [18]: 20% | inhibition [19]: 19% | Ki [20]: 7.52 µM | inhibition [21]: 1% | inhibition [22]: 2.66% | inhibition [23]: 7.36% | inhibition at 60 min, 10 µM [24]: 7% (not active) | inhibition [25]: -5% | inhibition [26]: -1% | inhibition [27]: 30% | inhibition at 30 min, 10 µM [28]: 1% (not active)
